Patent US20250340565A1, “CD73 INHIBITOR COMPOUNDS” (AdoRx Therapeutics Limited, priority 2022, published 2025)
Counter-ions that a name gives are not always drawn.

Experiments:
CD73 in whole blood = CD73 in whole blood (Homo sapiens (Human), UniProt P21589); experiment: Whole blood AMP Glo assay; format: cell-based; conditions: whole blood of healthy volunteers, 10 μM AMP, 30 min pre-incubation, 15 min at 37° C., levamisole 1.5 mM
Method: Blood is drawn from healthy volunteers by venepuncture and anti-coagulated with Lithium Heparin (10 IU/mi). 150 μl of blood is added to U-bottom polypropylene 96-well assay plates pre-filled with 20 μl of compound dilutions prepared in RPMI also containing the Tissue Non-specific Alkaline Phosphatase inhibitor Levamisole (final assay concentration 1.5 mM). Control wells to define uninhibited CD73 contain DMSO in place of compound. Control wells to define complete stabilization of AMP attributable to CD73 contain LY3475070 (CAS: 2375815-63-5) at 30 μM final assay concentration.
Compounds are pre-incubated with whole blood at 37° C. for 30 minutes. Following this, AMP is added in a 30 μl volume for a final assay concentration of 10 μM, mixed, and the plates are incubated for 15 minutes at 37° C. Final DMSO concentration/well is 0.6% and final volume/well is 200 μL. After incubating with AMP, the plates are placed on ice and then centrifuged at 2000 g for 10 minutes at 4° C. Plasma is removed and then diluted 1:10 with pre-chilled HBSS (Ca2+& Mg2+free) and kept on ice.
The stabilized AMP concentration in diluted plasma is measured using AMP-Glo kit (Promega), in parallel with a standard curve of known AMP concentrations, with a final volume of 40 μl in white flat bottom half-well 96-well plates (Corning). Signal is measured by Luminescence. The IC50 values of test compounds are determined as the inflection point of the sigmoidal concentration response curve.

[1] = molecular target: CD73 activity in U138-MG cells (Homo sapiens (Human), UniProt P21589); experiment: U138-MG inhibition assay (inorganic phosphate from AMP, PiColorLock Gold); format: cell-based; conditions: 100 μM AMP, 30 min pre-incubation, 1 hour at 37° C.
Chain of CD73 activity in U138-MG cells (P21589 27-574): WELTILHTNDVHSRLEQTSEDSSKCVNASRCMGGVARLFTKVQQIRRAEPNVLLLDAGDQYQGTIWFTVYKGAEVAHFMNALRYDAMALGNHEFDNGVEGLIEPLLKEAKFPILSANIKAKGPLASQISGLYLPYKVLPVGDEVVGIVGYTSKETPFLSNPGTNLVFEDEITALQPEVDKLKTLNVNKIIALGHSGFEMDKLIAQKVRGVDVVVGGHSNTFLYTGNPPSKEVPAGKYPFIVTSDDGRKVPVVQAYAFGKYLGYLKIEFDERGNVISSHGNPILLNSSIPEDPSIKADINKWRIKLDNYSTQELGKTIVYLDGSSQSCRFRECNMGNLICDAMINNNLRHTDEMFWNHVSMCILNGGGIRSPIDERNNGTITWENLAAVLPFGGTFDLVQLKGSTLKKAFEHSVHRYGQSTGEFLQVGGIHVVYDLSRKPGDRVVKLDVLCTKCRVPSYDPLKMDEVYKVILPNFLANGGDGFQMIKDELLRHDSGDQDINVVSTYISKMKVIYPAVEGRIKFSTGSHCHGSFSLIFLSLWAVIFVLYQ
Method: U138-MG cells from ATCC are cultured in DMEM (Gibco 31966) with 10% FBS. Cells are seeded into 96-well culture plates (5,000 cell/well) in 100 μL of media for 24 hr. Cells are washed twice with 200 μL of assay buffer (20 mM HEPES, pH 7.4; 137 mM NaCl; 5.4 mM KCl; 1.3 mM CaCl2; 4.2 mM NaHCO3; 1 mg/mL glucose) to remove residual inorganic phosphate. CD73 inhibitor is added to each well in 100 μl volume and preincubated for 30 mins at 37° C. An equal volume of AMP substrate (Sigma A1572) is added to each well at a final concentration of 100 μM and incubated at 37° C. for 1 hour. Control wells containing cells but lacking added AMP, define the assay signal equivalent to 100% inhibition of CD73 activity. Supernatant is removed for measurement of inorganic phosphate using the PiColorLock Gold kit (Abcam, ab 270004).
The IC50 values of test compounds are determined as the inflection point of the sigmoidal concentration response curve.

[2] = molecular target: human (h)CD73 (amino acids Trp27-Lys547) (Homo sapiens, UniProt P21589); experiment: CD73 inhibition assay (Malachite Green phosphate detection); format: biochemical; conditions: 250 pM hCD73, 12.5 μM AMP, 20 min pre-incubation, absorbance 620 nm
Method: Compound inhibition of human (h)CD73 (amino acids Trp27-Lys547, R&D Systems 5795-EN-500) enzymatic activity was tested via the Malachite Green Phosphate Detection Kit (R&D DY996). Experiments were performed in 20 μL Tris buffer (25 mM Tris pH 7.5, 5 mM MgCl2, 0.002% Tween20), with 250 pM of hCD73. Test compounds of interest were prepared in a threefold serial dilution in DMSO and added to the assay to give the appropriate final concentration, with the assay DMSO concentration being 1%. Compounds were pre-incubated for 20 minutes with hCD73 in a 384 well clear plate (Greiner 781101), followed by the addition of adenosine monophosphate (AMP) to 12.5 μM. The enzymatic reaction was carried out for 20 min at room temperature. 5 μL of Malachite kit reagent A was added to stop the reaction (contains 3M H2SO4) and after 10 min, 5 μL of Malachite kit reagent B was added (Malachite Green). After 30 min, absorbance at 620 nm was read on a BMG Pherastar FSX.
Data were normalised to measurements in the absence of competing compound (0% inhibition) and in the presence of 10 μM control compound (100% inhibition).

Chain of CD73 in whole blood (P21589 27-574): as above

Structure (SMILES)	IC50 (CD73 in whole blood) [µM]	IC50 [1] [µM]	IC50 [2] [µM]
O=c1[nH]cc(-c2cc3c(N4CCC(CO)C4)ncnc3s2)c(=O)[nH]1 (stereo not drawn) [Example 1, 5-[4-[3-(Hydroxymethyl)pyrrolidin-1-yl]thieno[2,3-d]pyrimidin-6-yl]-1H-pyrimidine-2,4-dione]	8.75	2.34	0.715
O=c1[nH]cc(-c2cc3c(N4CCC(CCO)C4)ncnc3s2)c(=O)[nH]1 (stereo not drawn) [Example 1.1, 5-[4-[3-(2-Hydroxyethyl)pyrrolidin-1-yl]thieno[2,3-d]pyrimidin-6-yl]-1H-pyrimidine-2,4-dione]	8.76	2.31	0.677
O=c1[nH]cc(-c2cc3c(N4CCC(OCCO)C4)ncnc3s2)c(=O)[nH]1 (stereo not drawn) [Example 1.3, 5-[4-[3-(2-Hydroxyethoxy)pyrrolidin-1-yl]thieno[2,3-d]pyrimidin-6-yl]-1H-pyrimidine-2,4-dione]	3.16	0.717	0.489
O=c1[nH]cc(-c2cc3c(N4CCC(OCCN5CCCCC5)C4)ncnc3s2)c(=O)[nH]1 (stereo not drawn) [Example 2, 5-[4-[3-[2-(1-Piperidyl)ethoxy]pyrrolidin-1-yl]thieno[2,3-d]pyrimidin-6-yl]-1H-pyrimidine-2,4-dione]	0.047	0.0461	0.0111
CC1(C)CCN(c2ncnc3sc(-c4c[nH]c(=O)[nH]c4=O)cc23)C1 [Example 2.1, 5-[4-(3,3-Dimethylpyrrolidin-1-yl)thieno[2,3-d]pyrimidin-6-yl]-1H-pyrimidine-2,4-dione]	6.99	1.12	0.401
N#Cc1ccc(OC2CCN(c3ncnc4sc(-c5c[nH]c(=O)[nH]c5=O)cc34)C2)nc1 (stereo not drawn) [Example 3, 6-[1-[6-(2,4-Dioxo-1H-pyrimidin-5-yl)thieno[2,3-d]pyrimidin-4-yl]pyrrolidin-3-yl]oxypyridine-3-carbonitrile]	2.22	0.588	0.0596
CC1(C)CN(c2ncnc3sc(-c4c[nH]c(=O)[nH]c4=O)cc23)CC1(F)F [Example 4, 5-[4-(3,3-Difluoro-4,4-dimethyl-pyrrolidin-1-yl)thieno[2,3-d]pyrimidin-6-yl]-1H-pyrimidine-2,4-dione]	4.01	0.734	0.0873
O=c1[nH]cc(-c2cc3c(N4CCC(OCc5ccccn5)C4)ncnc3s2)c(=O)[nH]1 (stereo not drawn) [Example 4.1, 5-[4-[3-(2-pyridylmethoxy)pyrrolidine-1-yl]thieno[2,3-d]pyrimidin-6-yl]-1H-pyrimidine-2,4-dione formate salt]	0.782	0.428	0.096
CN1CCOC(COC2CN(c3ncnc4sc(-c5c[nH]c(=O)[nH]c5=O)cc34)CC2(F)F)C1 (stereo not drawn) [Example 4.3, 5-[4-[3,3-Difluoro-4-[(4-methylmorpholin-2-yl)methoxy]pyrrolidine-1-yl]thieno[2,3-d]pyrimidin-6-yl]-1H-pyrimidine-2,4-dione formate salt]	0.516	0.498	0.269
CN1CCOC(COC2CCN(c3ncnc4sc(-c5c[nH]c(=O)[nH]c5=O)cc34)C2)C1 (stereo not drawn) [Example 4.4, 5-[4-[3-[(4-Methylmorpholin-2-yl)methoxy]pyrrolidine-1-yl]thieno[2,3-d]pyrimidin-6-yl]-1H-pyrimidine-2,4-dione]	0.254	0.0766	0.0743
O=c1[nH]cc(-c2cc3c(N4CC(OCCN5CCCCC5)C(F)(F)C4)ncnc3s2)c(=O)[nH]1 (stereo not drawn) [Example 5, 5-[4-[3,3-Difluoro-4-[2-(1-piperidyl)ethoxy]pyrrolidine-1-yl]thieno[2,3-d]pyrimidin-6-yl]-1H-pyrimidine-2,4-dione formate salt]	0.184	0.179	0.032
O=c1[nH]cc(-c2nc3ncnc(N4CCC(OCCN5CCCCC5)C4)c3s2)c(=O)[nH]1 (stereo not drawn) [Example 6, 5-[7-[3-[2-(1-Piperidyl)ethoxy]pyrrolidin-1-yl]thiazolo[4,5-d]pyrimidin-2-yl]-1H-pyrimidine-2,4-dione]	0.0275	0.0187	0.0573
O=c1[nH]cc(-c2cc3c(N4CCC(OCCN5CCCCC5)C4)ncnc3o2)c(=O)[nH]1 (stereo not drawn) [Example 7, 5-[4-[3-[2-(1-Piperidyl)ethoxy]pyrrolidin-1-yl]furo[2,3-d]pyrimidin-6-yl]-1H-pyrimidine-2,4-dione formate salt]	0.0125	0.0072	0.0228
CC1(C)CN(c2ncnc3oc(-c4c[nH]c(=O)[nH]c4=O)cc23)CC1(F)F [Example 7.1, 5-[4-(3,3-Difluoro-4,4-dimethyl-pyrrolidin-1-yl)furo[2,3-d]pyrimidin-6-yl]-1H-pyrimidine-2,4-dione]	0.444	0.0228	0.0254
O=c1[nH]cc(-c2cc3ncnc(N4CCC(OCCN5CCCCC5)C4)c3s2)c(=O)[nH]1 (stereo not drawn) [Example 8, 5-[4-[3-[2-(1-Piperidyl)ethoxy]pyrrolidin-1-yl]thieno[3,2-d]pyrimidin-6-yl]-1H-pyrimidine-2,4-dione]	0.0507	0.0347	0.0201
O=c1[nH]cc(-c2cc3c(N4CCC(OCCN5CCCCC5)C4)ncnn3c2)c(=O)[nH]1 (stereo not drawn) [Example 10, 5-[4-[3-[2-(1-Piperidyl)ethoxy]pyrrolidin-1-yl]pyrrolo[2,1-f][1,2,4]triazin-6-yl]pyrimidine-2,4-diol]	0.0296	0.0519	0.0207
O=c1[nH]cc(-c2cc3c(N4CCC(OCCN5CCC(F)(F)CC5)C4)ncnn3c2)c(=O)[nH]1 (stereo not drawn) [Example 10.1, 5-[4-[3-[2-(4,4-Difluoro-1-piperidyl)ethoxy]pyrrolidin-1-yl]pyrrolo[2,1-f][1,2,4]triazin-6-yl]-1H-pyrimidine-2,4-dione]	0.0501	0.0611	0.0854
CC1(C)CN(c2ncnn3cc(-c4c[nH]c(=O)[nH]c4=O)cc23)CC1(F)F [Example 10.2, 5-[4-(3,3-Difluoro-4,4-dimethyl-pyrrolidin-1-yl)pyrrolo[2,1-f][1,2,4]triazin-6-yl]-1H-pyrimidine-2,4-dione]	1.59	0.312	0.13
COC1CN(c2ncc(Cl)n3nc(-c4c[nH]c(=O)[nH]c4=O)cc23)CC1(F)F (stereo not drawn) [Example 25.14, 5-[7-Chloro-4-(3,3-difluoro-4-methoxy-pyrrolidin-1-yl)pyrazolo[1,5-a]pyrazin-2-yl]-1H-pyrimidine-2,4-dione]	0.02	0.007	–
CC1(C)CCN(c2ncc(Cl)n3nc(-c4c[nH]c(=O)[nH]c4=O)cc23)C1 [Example 25.16, 5-[7-chloro-4-(3,3-dimethylpyrrolidin-1-yl)pyrazolo[1,5-a]pyrazin-2-yl]-1H-pyrimidine-2,4-dione]	0.078	0.011	–
CC1(C)CCN(c2ncc(F)n3nc(-c4c[nH]c(=O)[nH]c4=O)cc23)C1 [Example 25.17, 5-[4-(3,3-dimethylpyrrolidin-1-yl)-7-fluoro-pyrazolo[1,5-a]pyrazin-2-yl]-1H-pyrimidine-2,4-dione]	0.45	0.039	–
